Assay results as given in patent publication US4055640A, “Compositions and methods for controlling the growth of bacteria, fungi and algae using certain derivatives of N-(2,2-dichlorovinyl)salicylamides” (Nippon Kayaku Co., Ltd., priority 1975, dated 1977).
Counter-ions that a name gives are not always drawn.

Legend:
Aspergillus niger = test: Growth inhibition zones around treated clothes (Example 16); format: cell-based
Method: (§1) The emulsifiable concentrate which was prepared by Example 10 and which contained 10% of Compound No. 1 was entered to three vessels. These emulsifiable concentrates were diluted with water 500 times, 1000 times and 2000 times respectively. Emulsions were obtained. Each of silk, cotton and vinylon clothes was dipped into the three different concentrations of emulsions for 3 minutes and dried for 24 hours at room temperature. The clothes dreid were cut into a square of which a side was 1 cm long.
(§2) Test bacteria and fungi were inoculated on the whole surfaces of the plates of potato-dextrose agar medium. The square clothes were placed on the plates of agar culture medium of potato. The inoculated bacteria and fungi were incubated at 28° C for 4 days. The width of zones in which the growth of the test bateria and fungi was inhibited in the environment of the clothes was measured.

Bacillus subtilis = test: as above; format: cell-based
Method: as §1, §2

Penicillium citrenum = test: as above; format: cell-based
Method: as §1, §2

Staphylococcus aureus = test: as above; format: cell-based
Method: as §1, §2

[1] = tested on: seedling blight of rice plant (pathogen Fusarium sp. and Rhizoctonia sp.); test: Exterminating test on seedling blight of rice plant (Experimental Example 1); format: in vivo; details: soil, 408 h, 0.25g/box a.i., 5% dust mixed with soil; read-out: Percentage of healthy seedlings
Outline: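 Pathogen-contaminated nursery soil (Fusarium sp., Rhizoctonia sp.) mixed with 5% compound dust at 5 g per box; Nihonbare rice sown, grown 7 days at 17° C in lighting chamber, then moved to field. Assessed 10 days later as percentage of healthy seedlings; commercial 4% hydroxyisoxazol dust run as control.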

[2] = tested on: bacteria gathered from circular water system; test: Degree of propagation on slime test boards (Example 27); format: cell-based; details: shaking culture for 2 days
Outline: (§3)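 Wood slime test boards were soaked in Waxman's liquid medium holding 0.02 part active compound (as 10% water-soluble concentrate) per 100 parts medium. Medium was inoculated with bacteria from a circular water system, fungi or green algae and shake-cultured 2 days at 27°-34° C. Propagation on the boards was scored with symbols.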

fungi [3] = test: as above; format: cell-based; details: same method, shaking culture for 2 days
Outline: as §3

green algae [4] = test: as above; format: cell-based; details: same method, shaking culture for 2 days
Outline: as §3

[5] = tested on: bacteria gathered from circular water system; test: Degree of propagation on slime test boards (Example 19); format: cell-based; design: key: -: no propagation; +: the area of propagation is 1 - 25% on the slime test boards.; ++: the area of propagation is 26 - 50% on the slime test boards.; +++: the area of propagation is 51 - 75% on the slime test boards.; ++++: the area of propagation is 76 - 100% on the slime test boards
Method: (§4) Zero point zero two (0.02) part of active compounds in the form of 10% water soluble concentrate which was prepared by Example 13 was added into 100 parts of Waxman's liquid medium. Pieces of wood and iron (hereafter referred to as the slime test boards) were soaked into the Waxman's liquid medium. The bacteria which were gathered from circular water system were inoculated upon the Waxman's liquid medium and incubated at 27° C-34° C by shaking culture. The degree of propagation of the bacteria on the slime test boards was examined.
(§5) The growth-inhibiting activity of active compounds against the fungi and the green algae was also examined by the same method as mentioned above.
(§6) The degree of propagation of the bacteria, fungi or green algae on the slime test boards is defined in terms of the following symbols.

fungi [6] = test: as above; format: cell-based; design: key: -: no propagation; +: the area of propagation is 1 - 25% on the slime test boards.; ++: the area of propagation is 26 - 50% on the slime test boards.; +++: the area of propagation is 51 - 75% on the slime test boards.; ++++: the area of propagation is 76 - 100% on the slime test boards
Method: as §4, §5, §6

green algae [7] = test: as above; format: cell-based; design: key: -: no propagation; +: the area of propagation is 1 - 25% on the slime test boards.; ++: the area of propagation is 26 - 50% on the slime test boards.; +++: the area of propagation is 51 - 75% on the slime test boards.; ++++: the area of propagation is 76 - 100% on the slime test boards
Method: as §4, §5, §6

SMILES: O=C(NC=C(Cl)Cl)c1ccccc1O [Compound No. 1, N-(β,β-dichlorovinyl) salicylamide]
- width of growth inhibition zones (Aspergillus niger; Cotton, 0.005 %): 6 mm
- width of growth inhibition zones (Aspergillus niger; Cotton, 0.01 %): 8 mm
- width of growth inhibition zones (Aspergillus niger; Cotton, 0.02 %): 11 mm
- width of growth inhibition zones (Aspergillus niger; Silk, 0.005 %): 5 mm
- width of growth inhibition zones (Aspergillus niger; Silk, 0.01 %): 7 mm
- width of growth inhibition zones (Aspergillus niger; Silk, 0.02 %): 8 mm
- width of growth inhibition zones (Aspergillus niger; Vinylon, 0.005 %): 4 mm
- width of growth inhibition zones (Aspergillus niger; Vinylon, 0.01 %): 6 mm
- width of growth inhibition zones (Aspergillus niger; Vinylon, 0.02 %): 8 mm
- width of growth inhibition zones (Bacillus subtilis; Cotton, 0.005 %): 3 mm
- width of growth inhibition zones (Bacillus subtilis; Cotton, 0.01 %): 6 mm
- width of growth inhibition zones (Bacillus subtilis; Cotton, 0.02 %): 10 mm
- width of growth inhibition zones (Bacillus subtilis; Silk, 0.005 %): 3 mm
- width of growth inhibition zones (Bacillus subtilis; Silk, 0.01 %): 6 mm
- width of growth inhibition zones (Bacillus subtilis; Silk, 0.02 %): 10 mm
- width of growth inhibition zones (Bacillus subtilis; Vinylon, 0.005 %): 2 mm
- width of growth inhibition zones (Bacillus subtilis; Vinylon, 0.01 %): 5 mm
- width of growth inhibition zones (Bacillus subtilis; Vinylon, 0.02 %): 9 mm
- width of growth inhibition zones (Penicillium citrenum; Cotton, 0.005 %): 5 mm
- width of growth inhibition zones (Penicillium citrenum; Cotton, 0.01 %): 7 mm
- width of growth inhibition zones (Penicillium citrenum; Cotton, 0.02 %): 9 mm
- width of growth inhibition zones (Penicillium citrenum; Silk, 0.005 %): 4 mm
- width of growth inhibition zones (Penicillium citrenum; Silk, 0.01 %): 6 mm
- width of growth inhibition zones (Penicillium citrenum; Silk, 0.02 %): 7 mm
- width of growth inhibition zones (Penicillium citrenum; Vinylon, 0.005 %): 3 mm
- width of growth inhibition zones (Penicillium citrenum; Vinylon, 0.01 %): 5 mm
- width of growth inhibition zones (Penicillium citrenum; Vinylon, 0.02 %): 7 mm
- width of growth inhibition zones (Staphylococcus aureus; Cotton, 0.005 %): 5 mm
- width of growth inhibition zones (Staphylococcus aureus; Cotton, 0.01 %): 9 mm
- width of growth inhibition zones (Staphylococcus aureus; Cotton, 0.02 %): 13 mm
- width of growth inhibition zones (Staphylococcus aureus; Silk, 0.005 %): 5 mm
- width of growth inhibition zones (Staphylococcus aureus; Silk, 0.01 %): 8 mm
- width of growth inhibition zones (Staphylococcus aureus; Silk, 0.02 %): 12 mm
- width of growth inhibition zones (Staphylococcus aureus; Vinylon, 0.005 %): 4 mm
- width of growth inhibition zones (Staphylococcus aureus; Vinylon, 0.01 %): 7 mm
- width of growth inhibition zones (Staphylococcus aureus; Vinylon, 0.02 %): 11 mm
- Percentage of healthy seedlings at 0.25 g/box [1]: 80.2%

SMILES: CC(=O)Oc1ccccc1C(=O)NC=C(Cl)Cl [Compound No. 6, O-acetyl-N-(2,2-dichlorovinyl) salicylamide]
- Degree of propagation [2]: -
- Degree of propagation (fungi [3]): -
- Degree of propagation (green algae [4]): -
- Percentage of healthy seedlings at 0.25 g/box [1]: 83.2%

SMILES: O=C(NC=C(Cl)Cl)c1ccccc1O [Compound No. 20, sodium salt of N-(β,β-dichlorovinyl) salicylamide]
- Degree of propagation ([5]; 7th day): -
- Degree of propagation ([5]; 14th day): -
- Degree of propagation ([5]; 21st day): -
- Degree of propagation (fungi [6]; 7th day): -
- Degree of propagation (fungi [6]; 14th day): -
- Degree of propagation (fungi [6]; 21st day): -
- Degree of propagation (green algae [7]; 7th day): -
- Degree of propagation (green algae [7]; 14th day): -
- Degree of propagation (green algae [7]; 21st day): -
